The test system of data set [1] is MCA205 sarcoma cells expressing the intron-derived SL8 antigen. In words: T-cell assay: B3Z specific T-cell activation by MCA205 cells expressing the intron-derived SL8 antigen. It is filed as cell-based, mouse. On the procedure: (§1) MCA205 mouse sarcoma cell line is cultured at 37° C. under 5% CO2 in RPMI 1640 medium (Life Technologies) in the presence of 1% glutamine, 1% sodium pyruvate, 1% non-essential amino-acids, 1% penicillin/streptomycin and 10% FBS (Life Technologies). B16F10 mouse melanoma cell line is cultured at 37° C. under 5% CO2 in DMEM medium (Life Technologies) containing 1% glutamine, 1% penicillin/streptomycin and 10% FCS under standard conditions. Stable MCA205-Globin-SL8-intron cell line are cultured under the same condition as MCA205 cell line with additional 500 μg/ml G418 (Life Technologies) for selection. Stable B16F10-Globin-SL8-intron cell line are cultured under the same condition as B16F10 cell line with additional 500 μg/ml G418 (Life Technologies) for selection. The SL8/Kb-specific (B3Z) T-cell reporter hybridoma are cultured at 37° C. under 5% CO2 in RPMI 1640 medium (Life Technologies) in the presence of 1% L-glutamine, 1% penicillin/streptomycin, 50 μM β-mercaptoéthanol and 10% FCS.
(§2) MCA205 and B16F10 mouse cell lines are transfected with the plasmid YFP-Globin-SL8-intron or with the PCDNA3 empty plasmid (negative control) with the transfection reagent jetPRIME (Ozyme) or GeneJuice (Millipore) respectively according to each manufacturer protocol. Twenty-four hours after transfection, cells are treated with different doses of Madrasin (Sigma SML 1409), Madra.HCl (3·HCl) or the different compounds herein cited. Cells are then washed three times with PBS 1× and 5.10^4 tumor cells are co-cultured with 1.10^5 B3Z hybridoma in a 96-well plate. In positive control wells, 4 μg/ml of synthetic peptide SL8 is added. Cells are then incubated overnight at 37° C. with 5% CO2. The plate is centrifuged at 1200 rpm for 5 min, cells are washed twice with PBS 1× and lysed for 5 min at 4° C. under shaking in 0.2% TritonX-100, 0.2% DTT, 0.5M K2HPO4, 0.5M KH2PO4. The lysate is centrifuged at 3000 rpm for 10 min and the supernatant is transferred to a 96-well optiplate (OptiPlaque-96, PerkinElmer). A revelation buffer containing 10 mM MgCl2, 11.2 mM β-mercaptoethanol, 0.0015% IGEPAL® CA-630 and 40 μM 4-Methylumbelliferyl β-D-Galactopyranoside (MUG) in PBS is added and the plate is incubated at room temperature for 3 hours. Finally, the β-galactosidase activity is measured using the FLUOstar OPTIMA (BMG LABTECH Gmbh, 30 Offenburg, Germany). Results are expressed as mean±SEM. *P<0.05, **P<0.01, ***P<0.001 (unpaired student t test).

Data set [2] concerns B16F10 melanoma cells expressing the intron-derived SL8 antigen. In words: T-cell assay: B3Z specific T-cell activation by B16F10 cells expressing the intron-derived SL8 antigen. It is filed as cell-based, mouse. On the procedure:
as §1, §2

Data set [3] deals with MCA205 sarcoma cells expressing the globin-SL8-intron construct. In words: Tumor challenge: MCA205 globin-SL8-intron tumors in immunocompetent C57BL/6 mice. Particulars: for survivors: 120 days after tumor inoculation. It is filed as in vivo, mouse. The protocol:
(§3) Wild type MCA205 sarcoma cells or MCA205 sarcoma cells expressing the globin-SL8-intron construct (MCA205 globin-SL8-intron) were subcutaneously inoculated into the flank of immunocompetent C57BL/6 mice subsequently injected intraperitoneally with 20 mg/kg or 40 mg/kg of Madra.HCl at day 4, 7, 10 and 14 post tumor inoculation. Tumor size was assessed every 3 to 4 days until the established ethical endpoints were reached. The panel C represents the growth curve of MCA205 sarcoma cells expressing the globin-SL8-intron construct (MCA205 globin-SL8-intron), the panel D represents the tumor size at day 25. The panel E represents the growth curve of Wild type MCA205 sarcoma cells (MCA205 WT), the panel F represents the tumor size at day 21. Data are given as mean±SEM. *p<0.05, **p<0.01 (ANOVA with Tukey's multiple comparison test comparing all groups).
(§4) Wild type MCA205 sarcoma cells or MCA205 sarcoma cells expressing the globin-SL8-intron construct (MCA205 globin-SL8-intron) were subcutaneously inoculated into the flank of immunocompetent C57BL/6 mice subsequently injected intraperitoneally with 20 mg/kg of EYP59 at day 4, 7, 10 and 14 post tumor inoculation. Tumor size was assessed every 3 to 4 days until the established ethical endpoints were reached (A). The upper panel B represents the growth curve of MCA205 sarcoma cells expressing the globin-SL8-intron construct (MCA205 globin-SL8-intron), the lower panel B represents the tumor size at day 23. The upper panel C represents the growth curve of Wild type MCA205 sarcoma cells (MCA205 WT), the lower panel C represents the tumor size at day 19. The panel D represents the growth curve of Wild type MCA205 sarcoma cells (MCA205 WT) in immunodeficient nu/nu mice with the same settings as previously described for the immunocompetent mice. Data are given as mean±SEM. *p<0.05, **p<0.01 (ANOVA with Tukey's multiple comparison test comparing all groups).
(§5) C57Bl/6J female mice are obtained from Harlan Laboratories Ltd, Switzerland. 7 week-old mice are injected subcutaneously into the right flank with 1.10^5 MCA205 sarcoma or B16F10 melanoma cells or 1.5.10^5 MCA205 globin-SL8-intron or B16F10 globin-SL8-intron cells. Sarcoma cells are injected in 100 μL sterile PBS while melanoma cells are injected in 50:50 PBS:Matrigel to prevent tumor cell dissemination. Madra.HCl is injected 4, 7, 10 and 14 days post tumor inoculation, in 100 μL H2O+[…] (2-Hydroxypropyl)-β-cyclodextrin (w/v). In the same manner EYP59 (compound 7) is injected 4, 7, 10 and 14 days post tumor inoculation, in 100 μL H2O. Area of the tumor is recorded every 3 to 4 days until the tumor reaches the ethical end points. […] Results are expressed as mean±SEM. *p<0.05, **P<0.01, ***P<0.001 (ANOVA with Tukey's multiple comparison test comparing all groups).

The test system of data set [4] is Wild type MCA205 sarcoma cells. Kind of data set: Tumor challenge: wild type MCA205 tumors in immunocompetent C57BL/6 mice. It is filed as in vivo, mouse. On the procedure: as §3, §4
Wild type MCA205 sarcoma cells were subcutaneously inoculated into the flank of immunocompetent C57BL/6 mice subsequently injected intratumorally with 2.5 mg/kg of EYP59 at day 4, 7, 10 and 14 post tumor inoculation or intravenously with 5 mg/kg of EYP59 at day 4, 7, 10 and 14 post tumor inoculation. The upper panel A represents the growth curve of wild type MCA205 sarcoma cells, the lower panel A represents the tumor size at day 21. The upper panel B represents the growth curve of wild type MCA205 sarcoma cell, the lower panel B represents the tumor size at day 25. Data are given as mean±SEM. *p<0.05, **p<0.01 (ANOVA with Tukey's multiple comparison test comparing all groups).
as §5

In data set [5] the test system is MCA205 globin-SL8-intron cells. In words: Re-challenge of tumor-free mice at day 100 with MCA205 globin-SL8-intron cells. Particulars: mice with complete tumor regression after treatment, re-challenged 100 days later, right flank. It counts as in vivo, mouse. From the text: (§6) Growth curve of MCA205 globin-SL8-intron cells and B16F10 WT cells inoculated at day 100 into the right and the left flank, respectively, of C57BL/6 mice which experienced complete tumor regression after treatment with Madra.HCl.
(§7) Finally, mice which were inoculated with MCA205 tumor cells expressing the Globin-intron-SL8 construct, and that experienced complete tumor regression after treatment with Madra.HCl as described above were re-challenged 100 days later with MCA205 tumor cells expressing the Globin-intron-SL8 construct on the right flank and with B16F10 tumor cells on the left flank.

The test system of data set [6] is B16F10 WT cells. Kind of data set: Re-challenge of tumor-free mice at day 100 with B16F10 WT cells. It is filed as in vivo, mouse. Conditions: mice with complete tumor regression after treatment, re-challenged 100 days later, left flank.
From the text: as §6, §7

Data set [7] can be described thus: Solubility in water. It is filed as physicochemical.
Data set [8] deals with Wild type MCA205 sarcoma cells. Kind of data set: Tumor challenge: wild type MCA205 tumors in immunodeficient nu/nu mice. It counts as in vivo, mouse. Particulars: 20 mg/kg. On the procedure:
as §4
In order to assess the requirement of the immune response for this effect, inventors tested the impact of 20 mg/kg EYP59 treatment in immunodeficient nu/nu mice with the same settings as previously described and observed that it has no effect on the tumor growth (FIG. 7D).

Data set [9] deals with SF3B1 (Homo sapiens, UniProt O75533+Q7RTV0). Particulars: cited from earlier work.

Each structure is given as a SMILES string.

As to `COc1ccc2c(C)nc(Nc3nc(C)c(C)c(=O)[nH]3)nc2c1.Cl` [Madra.HCl, Madrasin hydrochloride], the “PTPs-dependent antigen presentation (B3Z T-cell activation)” value was “increase” in data set [1] (MCA205, 5 μM or 10 μM, dose dependent) and “increase” in [2] (B16F10, 5 μM or 10 μM, dose dependent). The results for the survivors entry in data set [3] (20 mg/kg intraperitoneally) and in [3] (40 mg/kg intraperitoneally) were “around 15%” and “around 25%”, respectively. Besides, the “reduction of tumor growth” value is given as 50% in [3] (20 mg/kg intraperitoneally, day 27 after challenge); 40% in data set [4] (20 mg/kg intraperitoneally, day 21 after challenge); 40% in data set [4] (40 mg/kg intraperitoneally, day 21 after challenge). Moreover, the “tumor growth after re-challenge” value is given as “did not grow” in [5] and “grew over time” in data set [6]. The solubility in water result in [7] is “able to be dissolved in water”.
On to `Cc1nc(Nc2nc(C)c3ccc(OP(=O)(O)O)cc3n2)[nH]c(=O)c1C` [EYP59, Sodium 2-((4,5-dimethyl-6-oxo-1,6-dihydropyrimidin-2-yl)amino)-4-methylquinazolin-7-yl Phosphate], for which the “PTP-SL8 presentation (B3Z T-cell activation)” value in [1] (MCA205, 60 μM, O/N) is listed as “increase”; in [2] (B16F10, 60 μM, O/N), “increase”. Further, the “reduction of tumor growth” value in data set [3] (20 mg/kg intraperitoneally, day 23 after challenge) is 85%; in data set [4] (2.5 mg/kg intratumorally, day 21 after challenge), 75%; in [4] (5 mg/kg intravenously, day 25 after challenge) it was 80%; in data set [4] (20 mg/kg intraperitoneally, day 19 after challenge), 70%. Besides, in data set [8], the “effect on the tumor growth” value is listed as “no effect”.
Consider `CC[C@H](O)[C@@H](C)[C@H]1O[C@@H]1C[C@@](C)(O)/C=C/C=C(\C)[C@H]1OC(=O)C[C@H](O)CC[C@@](C)(O)[C@@H](OC(=O)N2CCN(C3CCCCCC3)CC2)/C=C/[C@@H]1C` [E7107], for which, in data set [9], the “outcome of testing in human” value is listed as “stopped because of problems of toxicity”.
